Measurements published in ChEMBL document CHEMBL5608244, “Preclinical Evaluation of Dihydropyrazole-Cored Positron Emission Tomography (PET) Ligands for Imaging of Receptor-Interacting Serine/Threonine Protein Kinase 1 (RIPK1) in the Brain” (J Med Chem, 2024).

Tests used:
[1] = Biodistribution in ICR mouse spleen at 0.74 MBq, iv measured after 2 mins by automatic gamma counter analysis; type: ADME, organism-based; conditions: in vivo
[2] = Biodistribution in ICR mouse liver at 0.74 MBq, iv measured after 2 mins by automatic gamma counter analysis; type: ADME, organism-based; conditions: in vivo
[3] = Biodistribution in ICR mouse small intestine at 0.74 MBq, iv measured after 60 mins by automatic gamma counter analysis; type: ADME, organism-based; conditions: in vivo, 1 h
[4] = Biodistribution in ICR mouse kidneys at 0.74 MBq, iv measured after 30 mins by automatic gamma counter analysis; type: ADME, organism-based, Kidney; conditions: in vivo, 0.5 h
[5] = Biodistribution in ICR mouse spleen at 0.74 MBq, iv measured after 30 mins by automatic gamma counter analysis; type: ADME, organism-based; conditions: in vivo, 0.5 h
[6] = Drug uptake in thalamus of ICR mouse brain at 0.5 to 10 uM incubated for 30 mins by Phosphor Imager analysis; type: ADME, tissue-based; conditions: 0.5 h, dose 0.5-10 µM
[7] = Biodistribution in ICR mouse stomach at 0.74 MBq, iv measured after 30 mins by automatic gamma counter analysis; type: ADME, organism-based; conditions: in vivo, 0.5 h
[8] = Biodistribution in ICR mouse bone at 0.74 MBq, iv measured after 2 mins by automatic gamma counter analysis; type: ADME, organism-based, Bone element; conditions: in vivo
[9] = Drug metabolism in mouse liver assessed as polar radiometabolites accumulation at 13.5 MBq, iv measured after 30 mins by HPLC analysis; type: ADME, organism-based; conditions: in vivo, 0.5 h
[10] = Biodistribution in ICR mouse heart at 0.74 MBq, iv measured after 60 mins by automatic gamma counter analysis; type: ADME, organism-based; conditions: in vivo, 1 h
[11] = Biodistribution in ICR mouse lung at 0.74 MBq, iv measured after 2 mins by automatic gamma counter analysis; type: ADME, organism-based; conditions: in vivo
[12] = Drug uptake in thalamus of ICR mouse brain assessed as reduction in radioactivity incubated for 30 mins in presence of 1-(5-(3-fluorophenyl)-4,5-dihydro-1H-pyrazol-1-yl)-2,2-dimethylpropan-1-one by Phosphor Imager analysis; type: ADME, tissue-based; conditions: 0.5 h, dose 0.5-10 µM
[13] = Drug uptake in thalamus of ICR mouse brain assessed as reduction in radioactivity incubated for 30 mins in presence of 0.5 uM of 1-(5-(3-fluorophenyl)-4,5-dihydro-1H-pyrazol-1-yl)-2,2-dimethylpropan-1-one by Phosphor Imager analysis; type: ADME, tissue-based; set-up: scale not given: the % may be the effect or the level left; conditions: 0.5 h
[14] = Biodistribution in ICR mouse assessed as drug accumulation in bone without marrow at 0.74 MBq, iv pretreated with 1-(5-(3-fluorophenyl)-4,5-dihydro-1H-pyrazol-1-yl)-2,2-dimethylpropan-1-one followed by compound administration measured after 10 mins by automatic gamma counter analysis; type: ADME, organism-based; conditions: in vivo
[15] = Biodistribution in ICR mouse muscle at 0.74 MBq, iv measured after 10 mins by automatic gamma counter analysis; type: ADME, organism-based, Muscle tissue; conditions: in vivo
[16] = Biodistribution in ICR mouse muscle at 0.74 MBq, iv measured after 30 mins by automatic gamma counter analysis; type: ADME, organism-based, Muscle tissue; conditions: in vivo, 0.5 h
[17] = Drug metabolism in mouse plasma assessed as parent compound remaining at 13.5 MBq, iv measured after 30 mins by HPLC analysis; type: ADME, organism-based; conditions: read-out: Activity
[18] = Drug uptake in thalamus of ICR mouse brain assessed as reduction in radioactivity incubated for 30 mins in presence of 0.5 uM of GSK'547 by Phosphor Imager analysis; type: ADME, tissue-based; set-up: scale not given: the % may be the effect or the level left; conditions: 0.5 h
[19] = Drug metabolism in mouse brain assessed as parent compound remaining at 13.5 MBq, iv measured after 30 mins by HPLC analysis; type: ADME, organism-based; conditions: read-out: Activity
[20] = Biodistribution in ICR mouse bone at 0.74 MBq, iv measured after 10 mins by automatic gamma counter analysis; type: ADME, organism-based, Bone element; conditions: in vivo
[21] = Biodistribution in ICR mouse assessed as decrease in drug accumulation in small intestine at 0.74 MBq, iv pretreated with GSK'547 followed by compound administration measured after 10 mins by automatic gamma counter analysis; type: ADME, organism-based; set-up: scale not given: the % may be the effect or the level left; conditions: in vivo
[22] = Biodistribution in ICR mouse blood at 0.74 MBq, iv measured after 60 mins by automatic gamma counter analysis; type: ADME, organism-based; conditions: in vivo, 1 h
[23] = Biodistribution in ICR mouse assessed as decrease in drug accumulation in small intestine at 0.74 MBq, iv pretreated with 1-(5-(3-fluorophenyl)-4,5-dihydro-1H-pyrazol-1-yl)-2,2-dimethylpropan-1-one followed by compound administration measured after 10 mins by automatic gamma counter analysis; type: ADME, organism-based; set-up: scale not given: the % may be the effect or the level left; conditions: in vivo
[24] = Biodistribution in ICR mouse spleen at 0.74 MBq, iv measured after 10 mins by automatic gamma counter analysis; type: ADME, organism-based; conditions: in vivo
[25] = Biodistribution in ICR mouse assessed as drug accumulation in bone without marrow at 0.74 MBq, iv pretreated with GSK'547 followed by compound administration measured after 10 mins by automatic gamma counter analysis; type: ADME, organism-based; conditions: in vivo
[26] = Biodistribution in ICR mouse small intestine at 0.74 MBq, iv measured after 30 mins by automatic gamma counter analysis; type: ADME, organism-based; conditions: in vivo, 0.5 h
[27] = Drug uptake in thalamus of ICR mouse brain assessed as reduction in radioactivity at 0.5 to 10 uM incubated for 30 mins in presence of 1 uM of GSK'547 by Phosphor Imager analysis; type: ADME, tissue-based; set-up: scale not given: the % may be the effect or the level left; conditions: 0.5 h, dose 0.5-10 µM
[28] = Stability in saline measured for 60 to 150 mins by reversed-phase HPLC analysis; type: physicochemical; conditions: buffer; time 60-150 min
[29] = Biodistribution in ICR mouse muscle at 0.74 MBq, iv measured after 60 mins by automatic gamma counter analysis; type: ADME, organism-based, Muscle tissue; conditions: in vivo, 1 h
[30] = Drug metabolism in mouse brain assessed as polar radiometabolites accumulation at 13.5 MBq, iv measured after 30 mins by HPLC analysis; type: ADME, organism-based; conditions: in vivo, 0.5 h
[31] = Biodistribution in ICR mouse bone at 0.74 MBq, iv measured after 60 mins by automatic gamma counter analysis; type: ADME, organism-based, Bone element; conditions: in vivo, 1 h
[32] = Biodistribution in ICR mouse kidneys at 0.74 MBq, iv measured after 60 mins by automatic gamma counter analysis; type: ADME, organism-based, Kidney; conditions: in vivo, 1 h
[33] = Drug uptake in brain of TNF-alpha-induced SIRS Sprague-Dawley rat model assessed as decrease in radioactivity at 9.9 to 14.8 MBq, iv measured upto 20 mins by PET analysis; type: ADME, organism-based; set-up: scale not given: the % may be the effect or the level left; conditions: in vivo, dose 9.9-14.8 MBq
[34] = Biodistribution in ICR mouse assessed as decrease in drug accumulation in bone with marrow at 0.74 MBq, iv pretreated with GSK'547 followed by compound administration measured after 10 mins by automatic gamma counter analysis; type: ADME, organism-based; set-up: scale not given: the % may be the effect or the level left; conditions: in vivo
[35] = Drug uptake in brain of Sprague-Dawley rat at 9.9 to 14.8 MBq, iv measured for 5 mins by PET analysis; type: ADME, organism-based; conditions: in vivo, dose 9.9-14.8 MBq
[36] = Drug uptake in Sprague-Dawley rat brain at 10 to 17.6 MBq, iv treated for about 1 min by PET analysis; type: ADME, organism-based; conditions: in vivo, dose 10-17.6 MBq
[37] = Biodistribution in ICR mouse blood at 0.74 MBq, iv measured after 10 mins by automatic gamma counter analysis; type: ADME, organism-based; conditions: in vivo
[38] = Biodistribution in ICR mouse liver at 0.74 MBq, iv measured after 30 mins by automatic gamma counter analysis; type: ADME, organism-based; conditions: in vivo, 0.5 h
[39] = Biodistribution in ICR mouse brain at 0.74 MBq, iv measured after 2 mins by automatic gamma counter analysis; type: ADME, organism-based; conditions: in vivo
[40] = Biodistribution in ICR mouse blood at 0.74 MBq, iv measured after 2 mins by automatic gamma counter analysis; type: ADME, organism-based; conditions: in vivo

- Drug uptake [1]: 3.17 % ID/g
- Drug uptake [2]: 10.83 % ID/g
- Drug uptake [3]: 30.6 % ID/g
- Drug uptake [4]: 9.68 % ID/g
- Drug uptake [5]: 0.91 % ID/g
- Drug uptake [6]: Active
- Drug uptake [7]: 0.44 % ID/g
- Drug uptake [8]: 3.3 % ID/g
- Drug metabolism [9]: Metabolite_Detected
- Drug uptake [10]: 0.5 % ID/g
- Drug uptake [11]: 16.41 % ID/g
- Activity [12]: Dose-Dependent Effect
- Activity [13]: ~ 5%
- Drug uptake [14]: 21%
- Drug uptake [15]: 2.48 % ID/g
- Drug uptake [16]: 1.13 % ID/g
- remaining at 0.5 h [17]: 1.2%
- Activity [18]: ~ 5%
- remaining at 0.5 h [19]: 22.4%
- Drug uptake [20]: 4.17 % ID/g
- Activity [21]: 13.3%
- Drug uptake [22]: 0.57 % ID/g
- Activity [23]: 25.3%
- Drug uptake [24]: 1.99 % ID/g
- Drug uptake [25]: 12.1%
- Drug uptake [26]: 22.56 % ID/g
- Activity [27]: ~ 18%
- Stability [28]: > 99%
- Drug uptake [29]: 0.47 % ID/g
- Drug metabolism [30]: Metabolite_Detected
- Drug uptake [31]: 5.69 % ID/g
- Drug uptake [32]: 3.95 % ID/g
- Activity [33]: 9.1%
- Activity [34]: 11.9%
- Drug uptake [35]: Active
- SUVmax [36]: 1.3
- Drug uptake [37]: 4.92 % ID/g
- Drug uptake [38]: 7.56 % ID/g
- Drug uptake [39]: 4.89 % ID/g
- Drug uptake [40]: 4.79 % ID/g
SMILES: CC(C)(C)C(=O)N1N=CCC1c1cccc([18F])c1 (stereo not given)
